Experimental data: EP1210336B1, “SUBSTITUTED BENZIMIDAZOLES AS NON-NUCLEOSIDE INHIBITORS OF REVERSE TRANSCRIPTASE” (THE UNITED STATES OF AMERICA, as represented by the …, priority 1999, dated 2001)
Read-outs that look alike come from different tables or passages of the source.

How the values were obtained:
[1] = test system: WT virus (NL4-3); test: microbe, parasite or virus in culture; type: cell-based, HIV-1; details: for EC50 / EC50 (µM): Table 11, CEMSS/NL4-3, NRVC = reduction in viral CPE not seen (footnote); for EC50: read-out: EC50
Method: Evaluation of these compounds for the inhibition of HIV-1 was determined as the fifty percent cell culture inhibitory concentration (CIC50) in CEMSS cell culture with WT virus (NL4-3).
In this Example, the antiviral and cellular toxicity of NNRTIs was investigated, using the cytopathic cell killing assay described by Yang (Yang et al., "Characteristics of a Group of Non-nucleoside Reverse Transcriptase Inhibitors with Structural Diversity and Potent Anti-Human Immunodeficiency Virus Activity," Leukemia 9:S75-S85 [1995]). Briefly, in this method cells (e.g., the CEM-SS cell line, available from the NIAID AIDS Research and Reference Program [ARRRP]) were seeded at a density of 5 x 10^3 cells/well, into the wells of a 96-well microtiter plate. The cells were then infected with HIV virus (either mutant or WT), at a multiplicity of infection (MOI) previously determined to provide complete cell killing by 6 days of culture post-infection (e.g., MOI of 0.01-0.05). Each of the HIV isolates was pre-titered to induce equivalent levels of infection based on cell killing or virus production, prior to their use in these assays. A range of test compound concentrations was added to the wells in triplicate (e.g., serial half-log dilutions) to evaluate inhibition of HIV infection. Controls for each assay included drug controls (drug colorimetric control wells), drug cytotoxicity control wells (cells with drug), virus control wells (cells with virus), and cell viability controls (cells only). Positive control drugs (e.g., AZT and ddC) were also run in parallel.
After six days of incubation at 37°C, cell viability was determined spectrophotometrically at 450 nm for each well, using the metabolic reduction of XTT to a soluble colored formazan. (See, Gartner and Popovic, "Virus Isolation and Production, in Aldovini and Walker (eds.), Techniques in HIV Research, Stockton Press, NY, pp. […] [1991]; and Nara and Fischinger, "Quantitative Infectivity Assay for HIV-1 and HIV-2," Nature 332:469-470 [1988]).
The in vitro therapeutic index (TI50) was defined as the fold-difference between the EC50 and IC50. The results for the various compounds are included in Figures 8 and 19.

[2] = biological target: T1, HIV-1 WT RT (Human immunodeficiency virus type 1 group M subtype B, UniProt P03366); test: biochemical; details: WT RT, 10 µM drug concentration
T1 construct: purified RT protein (0.015 mg/mL) was incubated in a 100 µL reaction mixture

[3] = Table 2, read-out: %inhibn (10µM)
[4] = Table 3, read-out: %inhibn (10 µM)
[5] = Table 1, read-out: %inhibn (10µM)

Compound: 1-(2,6-Difluorobenzyl)-2-(2,6-difluorophenyl)-4-hydroxyl-benzimidazole [compound 52]
- EC50 [1]: 630 nM

Compound: 1-(2,6-Difluorobenzyl)-2-(2,6-difluorophenyl)-4-hydroxymethylbenzimidazole [compound 67]
- EC50 [1]: 23 nM

Compound: 1-(2,6-Difluorobenzyl)-2-(2,6-difluorophenyl)-4-isopropenylbenzimidazole [compound 66]
- EC50 [1]: 1440 nM

Compound: 1-(2,6-Difluorobenzyl)-2-(2,6-difluorophenyl)-benzimidazole-4-carbaldehyde [compound 68]
- EC50 [1]: 120 nM

Compound: 1-(2,6-Difluorobenzyl)-2-(2,6-difluorophenyl)benzimidazole-4-carboxylate [compound 64]
- EC50 (µM) [1]: NRVC

Compound: 1-(2,6-difluorobenzyl)-2-(2,6-difluorophenyl)-4-acetoxymethylbenzimidazole [compound 51]
- EC50 [1]: 59 nM

Compound: 1-(2,6-difluorobenzyl)-2-(2,6-difluorophenyl)-4-chloromethylbenzimidazole [compound 69]
- EC50 [1]: 180 nM

Compound: 1-(2,6-difluorobenzyl)-2-(2,6-difluorophenyl)-4-cyanobenzimidazole [compound 60]
- EC50 [1]: 430 nM

Compound: 1-(2,6-difluorobenzyl)-2-(2,6-difluorophenyl)benzimidazol-4-yl-methylamine [compound 71]
- EC50 [1]: 37 nM

Compound: 1-(2,6-difluorobenzyl)-2-(2,6-difluorophenyl)benzimidazole-4-carboxylic acid amide [compound 62]
- EC50 [1]: 4900 nM

Compound: Fc1cccc(F)c1-c1nc2ccccc2n1Cc1ccccc1 [compound 28, 1-benzyl-2-(2,6-difluorophenyl)benzimidazole]
- inhibition at 10 µM [2, 3]: 71%

Compound: Cc1cccc2c1nc(-c1c(F)cccc1F)n2Cc1ccccc1 [compound 29, 1-benzyl-2-(2,6-difluorophenyl)-4-methylbenzimidazole]
- inhibition at 10 µM [2, 3]: 87%

Compound: Cc1cccc2c1nc(-c1c(F)cccc1F)n2Cc1c(Cl)cccc1Cl [compound 30, 1-(2,6-dichlorobenzyl)-2-(2,6-difluorophenyl)-4-methylbenzimidazole]
- inhibition at 10 µM [2, 3]: 58%

Compound: Fc1cccc(F)c1COCc1nc2ccccc2n1Cc1c(F)cccc1F [compound 32, 1-(2,6-difluorobenzyl)-2-(2,6-difluorobenzyloxymethyl)benzimidazole]
- inhibition at 10 µM [2, 4]: 7%

Compound: Cc1nc2ccccc2n1Cc1c(F)cccc1F [compound 35, 1-(2,6-difluorobenzyl)-2-methylbenzimidazole]
- inhibition at 10 µM [2, 4]: 22%

Compound: Cc1ccccc1-c1nc2ccccc2n1Cc1c(F)cccc1F [compound 36, 1-(2,6-difluorobenzyl)-2-(2-methylphenyl)benzimidazole]
- inhibition at 10 µM [2, 5]: 71%

Compound: Cc1cccc2c1nc(-c1cccc3ccccc13)n2Cc1c(F)cccc1F [compound 37, 1-(2,6-difluorobenzyl)-2-(1-naphthyl)-4-methylbenzimidazole]
- inhibition at 10 µM [2, 5]: 2%

Compound: Fc1cccc(F)c1Cn1c(-c2c(F)cccc2F)nc2cc(Br)ccc21 [compound 38, 1-(2,6-Difluorobenzyl)-2-(2,6-difluorophenyl)-5-bromobenzimidazole]
- cytotoxicity and anti-viral effect (summary graph) ([1]; Figures 10-12, result in words): inactive

Compound: O=S(=O)(c1ccccc1)n1c(-c2c(F)cccc2F)nc2ccccc21 [compound 45]
- inhibition at 10 µM [2, 3]: 52%

Compound: Cc1cccc2c1nc(-c1c(F)cccc1F)n2S(=O)(=O)c1ccccc1 [compound 46]
- inhibition at 10 µM [2, 3]: 39%

Compound: N=C(NO)c1cccc2c1nc(-c1c(F)cccc1F)n2Cc1c(F)cccc1F [compound 61, N-hydroxy 1-(2,6-difluorobenzyl)-2-(2,6-difluorophenyl)benzimidazole-4-carboxamidine]
- EC50 ([1]; Human immunodeficiency virus 1, NL43, CEM-SS): 190 nM

Compound: CN(C)C(=O)c1cccc2c1nc(-c1c(F)cccc1F)n2Cc1c(F)cccc1F [compound 63, 1-(2,6-difluorobenzyl)-2-(2,6-difluorophenyl)benzimidazole-4-carboxylic acid dimethylamide]
- EC50 (µM) [1]: NRVC

Compound: Cc1cccc2c1nc(-c1ccc(C#N)cc1)n2Cc1c(F)cccc1F [compound 4007]
- inhibition at 10 µM [2, 5]: 26%
